Measurements taken from patent US12297234B2, “Genetically encoded system for constructing and detecting biologically active agents” (The Regents of the University of Colorado, priority 2018, dated 2025).

Assays:
PTP1B [1] = assay: Mutational analysis of the inhibitor binding site (fractional change in inhibition); assay type: biochemical, H. sapiens; conditions: FIG. 24C
From the text: FIG. 24B illustrates exemplary disruptive mutations introduced at each site. Mutations were designed to alter the size and/or polarity of targeted residues. […] Error bars denote SE (propagated from n≥9 independent measurements of each V in Eq. 1).

PTP1B [2] = molecular target: T1, PTP1B (Homo sapiens, UniProt P18031); assay: Binding-induced quenching of tryptophan fluorescence of PTP1B; set-up: species or system H. sapiens; conditions: FIG. 17C
T1 construct: made in house; host or cells: E. coli BL21 (B121 [sic])
T1 sequence (P18031 1-435): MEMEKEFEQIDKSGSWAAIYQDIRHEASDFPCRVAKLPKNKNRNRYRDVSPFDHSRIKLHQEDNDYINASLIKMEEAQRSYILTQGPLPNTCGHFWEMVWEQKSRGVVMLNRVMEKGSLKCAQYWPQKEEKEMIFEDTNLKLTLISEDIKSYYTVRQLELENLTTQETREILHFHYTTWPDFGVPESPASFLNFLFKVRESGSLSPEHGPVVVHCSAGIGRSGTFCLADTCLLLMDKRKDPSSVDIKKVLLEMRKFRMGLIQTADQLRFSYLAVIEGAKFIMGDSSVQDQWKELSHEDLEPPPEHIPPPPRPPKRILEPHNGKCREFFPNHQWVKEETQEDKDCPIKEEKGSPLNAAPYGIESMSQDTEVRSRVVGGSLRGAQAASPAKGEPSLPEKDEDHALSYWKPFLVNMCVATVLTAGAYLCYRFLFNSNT
From the text: FIG. 17A N-HSQC spectra of PTP1B (red) and PTP1B bound to abietic acid (blue). Inset: Crystal structure of PTP1B. […] Error bars represent standard error (n>5).
Binding-induced changes in the tryptophan fluorescence of PTP1B. A screen in which inhibition of PTP1B is linked to changes in tryptophan fluorescence (FIG. 21D) will enable rapid screening of moderately sized libraries (10^3-10^4)^27 in microtiter plates. Our use of binding-induced changes in tryptophan fluorescence is described in 5.6.

PTP1B [3] = molecular target: T1, PTP1B; assay: PTP1B-catalyzed hydrolysis of pNPP in the presence of inhibitor; assay type: biochemical, H. sapiens
From the text: FIG. 14A illustrates Abietic acid. […] FIG. 14C illustrates Abietic acid (green) docked in the allosteric site of PTP1B. […] Inset highlights active site in black.
FIG. 16A-B illustrates exemplary terpenoids showing differences in stereochemistry, shape, size, and chemical functionality. FIG. 16A illustrates clockwise from abietic acid (1), neoabietic acid (2), levopimaric acid (3), dihydroabietic acid (4). […] No inhibitor. Error bars=standard error (n>5).
Lines show a fit to a model for mixed inhibition. FIG. 22D an exemplary illustration of this model, where the inhibitor (I) binds to the enzyme (E) and enzyme-substrate complex (ES) with different affinities.
Improved inhibitors. We assessed the ability of minor structural perturbations of abietadiene derivatives to yield improved inhibitors by comparing four structurally related (and commercially available) molecules (FIG. 16): abietic, neoabietic, levopimaric, and dihydroabietic acid.
Statistical Analysis of Kinetic Models. We evaluated four kinetic models of inhibition as described previously (19). In brief, we used an F-test to compare a two-parameter mixed model to several single-parameter models, and we used Akaike's Information Criterion (AIC, or Ai) to compare the single-parameter models to one another. […] Exemplary Estimation of IC50. […]

Compound	effect of five mutations distributed across PTP1B on inhibition (PTP1B [1])	concentration detected by change in tryptophan fluorescence of PTP1B (PTP1B [2])	Ki (PTP1B [3]; commercially available abietane-type acids, FIG. 16, read-out: K, (inhibition of PTP1B))	inhibition relative to abietic acid (PTP1B [3])
CCc1oc2cc(S(=O)(=O)Nc3ccc(S(=O)(=O)Nc4nccs4)cc3)ccc2c1C(=O)c1cc(Br)c(O)c(Br)c1 [BBR, 3-(3,5-Dibromo-4-hydroxy-benzoyl)-2-ethyl-benzofuran-6-sulfonicacid-(4-(thiazol-2-ylsulfamyl)-phenyl)-amide]	negligible effect			
Cl.O=C(O)C(=O)Nc1sc2c(c1C(=O)O)CCNC2 [TCS401, 2-[(Carbox-ycarbonyl)amino]-4,5,6,7-tetrahydro-thieno[2,3-c]pyridine-3-carboxylic acid hydrochloride]	reduced inhibition			
CC(C)C1=CC2=CC[C@@H]3[C@](C)(CCC[C@@]3(C)C(=O)O)[C@H]2CC1 [abietic acid]	reduced inhibition	50 µM	250 µM	
CC(C)C1C=C2CCC3C(C)(C(=O)O)CCCC3(C)C2CC1 (stereo not drawn) [dihydroabietic acid]				ten times more inhibitory than abietic acid
